This is an account of results in the NIST ThermoML archive (doi:10.1021/je400140n).

Numbers after ± are expanded uncertainties.

The series in a line: molar heat capacity at constant pressure. Conditions: 101.33 kPa, Liquid, Small sample (50 mg) DSC.

Regarding `CCCCn1cc[n+](C)c1.N#CN=C=[N-]` [1-butyl-3-methylimidazolium dicyanamide], the “molar heat capacity at constant pressure” value is 359.41 ± 58 J/K/mol (296.2 K); 361.87 ± 58 J/K/mol (300.2 K); 363.1 ± 58 J/K/mol (304.2 K); 364.34 ± 58 J/K/mol (308.2 K); 365.98 ± 59 J/K/mol (312.2 K); 367.21 ± 59 J/K/mol (316.2 K). The “molar heat capacity at constant pressure” value (320.2 K) stood at 368.65 ± 59 J/K/mol; the “molar heat capacity at constant pressure” value (324.2 K) is 370.08 ± 60 J/K/mol; the “molar heat capacity at constant pressure” value (328.2 K) is recorded as 372.14 ± 60 J/K/mol; the “molar heat capacity at constant pressure” value (332.2 K) amounted to 374.39 ± 60 J/K/mol; the “molar heat capacity at constant pressure” value (336.2 K) is reported as 377.47 ± 61 J/K/mol; the “molar heat capacity at constant pressure” value (340.2 K) amounted to 380.35 ± 61 J/K/mol. For the same compound, the “molar heat capacity at constant pressure” value runs as follows: (344.2 K) 383.63 ± 62 J/K/mol; (348.2 K) 386.71 ± 62 J/K/mol; (352.2 K) 390.4 ± 63 J/K/mol; (356.2 K) 394.51 ± 63 J/K/mol; (360.2 K) 398.82 ± 64 J/K/mol; (364.2 K) 403.34 ± 65 J/K/mol. Besides, the “molar heat capacity at constant pressure” value by setting is: (368.2 K) 408.26 ± 65 J/K/mol; (372.2 K) 413.6 ± 67 J/K/mol.

On to `CCCCn1cc[n+](C)c1.N#C[S-]` [1-butyl-3-methylimidazolium thiocyanate], for which the “molar heat capacity at constant pressure” value (296.2 K) was found to be 319.63 ± 51 J/K/mol; the “molar heat capacity at constant pressure” value (300.2 K) was determined as 319.63 ± 51 J/K/mol; the “molar heat capacity at constant pressure” value (304.2 K) came out at 320.22 ± 51 J/K/mol; the “molar heat capacity at constant pressure” value (308.2 K) is reported as 321.21 ± 51 J/K/mol; the “molar heat capacity at constant pressure” value (312.2 K) is 322.98 ± 52 J/K/mol; the “molar heat capacity at constant pressure” value (316.2 K) came to 324.36 ± 52 J/K/mol. Further, the “molar heat capacity at constant pressure” value (320.2 K) was found to be 325.55 ± 52 J/K/mol; the “molar heat capacity at constant pressure” value (324.2 K) came out at 326.93 ± 52 J/K/mol; the “molar heat capacity at constant pressure” value (328.2 K) is on record as 329.1 ± 53 J/K/mol; the “molar heat capacity at constant pressure” value (332.2 K) was 331.27 ± 53 J/K/mol; the “molar heat capacity at constant pressure” value (336.2 K) worked out at 333.64 ± 54 J/K/mol; the “molar heat capacity at constant pressure” value (340.2 K) worked out at 336 ± 54 J/K/mol. The “molar heat capacity at constant pressure” value is 338.57 ± 54 J/K/mol (344.2 K); 341.13 ± 55 J/K/mol (348.2 K); 344.29 ± 55 J/K/mol (352.2 K); 347.05 ± 56 J/K/mol (356.2 K); 350.21 ± 56 J/K/mol (360.2 K); 353.37 ± 57 J/K/mol (364.2 K). Moreover, the “molar heat capacity at constant pressure” value is listed as 356.72 ± 57 J/K/mol (368.2 K) and 360.27 ± 58 J/K/mol (372.2 K).

Turning to `CCn1cc[n+](C)c1.N#C[C-](C#N)C#N` [1-ethyl-3-methyl-1H-imidazolium tricyanomethanide], the “molar heat capacity at constant pressure” value was 357.18 ± 57 J/K/mol (296.2 K); 360.2 ± 58 J/K/mol (300.2 K); 362.41 ± 58 J/K/mol (304.2 K); 363.82 ± 58 J/K/mol (308.2 K); 365.83 ± 59 J/K/mol (312.2 K); 367.44 ± 59 J/K/mol (316.2 K). Moreover, the “molar heat capacity at constant pressure” value is, setting by setting: (320.2 K) 368.85 ± 59 J/K/mol; (324.2 K) 370.26 ± 60 J/K/mol; (328.2 K) 372.07 ± 60 J/K/mol; (332.2 K) 374.49 ± 60 J/K/mol; (336.2 K) 376.9 ± 61 J/K/mol; (340.2 K) 379.31 ± 61 J/K/mol. For the same compound, the “molar heat capacity at constant pressure” value came to 381.73 ± 61 J/K/mol (344.2 K); 384.35 ± 62 J/K/mol (348.2 K); 387.16 ± 62 J/K/mol (352.2 K); 390.18 ± 63 J/K/mol (356.2 K); 393 ± 63 J/K/mol (360.2 K); 396.22 ± 64 J/K/mol (364.2 K). The “molar heat capacity at constant pressure” value runs as follows: (368.2 K) 399.24 ± 64 J/K/mol; (372.2 K) 403.06 ± 65 J/K/mol.

With `CCn1cc[n+](C)c1.N#CN=C=[N-]` [1-ethyl-3-methylimidazolium dicyanamide], the “molar heat capacity at constant pressure” value came to 323.76 ± 52 J/K/mol (296.2 K); 325.88 ± 52 J/K/mol (300.2 K); 328.01 ± 53 J/K/mol (304.2 K); 329.96 ± 53 J/K/mol (308.2 K); 332.44 ± 53 J/K/mol (312.2 K); 334.21 ± 54 J/K/mol (316.2 K). Besides, the “molar heat capacity at constant pressure” value (320.2 K) came to 335.81 ± 54 J/K/mol; the “molar heat capacity at constant pressure” value (324.2 K) stood at 337.76 ± 54 J/K/mol; the “molar heat capacity at constant pressure” value (328.2 K) stood at 340.24 ± 55 J/K/mol; the “molar heat capacity at constant pressure” value (332.2 K) is 342.89 ± 55 J/K/mol; the “molar heat capacity at constant pressure” value (336.2 K) was found to be 345.55 ± 55 J/K/mol; the “molar heat capacity at constant pressure” value (340.2 K) is given as 348.21 ± 56 J/K/mol. Besides, the “molar heat capacity at constant pressure” value worked out at 351.22 ± 56 J/K/mol (344.2 K); 354.41 ± 57 J/K/mol (348.2 K); 357.78 ± 57 J/K/mol (352.2 K); 361.15 ± 58 J/K/mol (356.2 K); 364.87 ± 59 J/K/mol (360.2 K); 368.59 ± 59 J/K/mol (364.2 K). The “molar heat capacity at constant pressure” value is, setting by setting: (368.2 K) 372.49 ± 60 J/K/mol; (372.2 K) 376.74 ± 60 J/K/mol.

Take `CCn1cc[n+](C)c1.N#C[S-]` [1-ethyl-3-methylimidazolium thiocyanate]: the “molar heat capacity at constant pressure” value runs as follows: (296.2 K) 284.51 ± 46 J/K/mol; (300.2 K) 284.17 ± 46 J/K/mol; (304.2 K) 285.18 ± 46 J/K/mol; (308.2 K) 286.2 ± 46 J/K/mol; (312.2 K) 287.89 ± 46 J/K/mol; (316.2 K) 289.25 ± 47 J/K/mol. Moreover, the “molar heat capacity at constant pressure” value is, setting by setting: (320.2 K) 290.6 ± 47 J/K/mol; (324.2 K) 292.12 ± 47 J/K/mol; (328.2 K) 293.98 ± 47 J/K/mol; (332.2 K) 296.18 ± 48 J/K/mol; (336.2 K) 298.22 ± 48 J/K/mol; (340.2 K) 300.59 ± 48 J/K/mol. Besides, the “molar heat capacity at constant pressure” value worked out at 303.12 ± 49 J/K/mol (344.2 K); 305.49 ± 49 J/K/mol (348.2 K); 308.2 ± 49 J/K/mol (352.2 K); 310.91 ± 50 J/K/mol (356.2 K); 313.96 ± 50 J/K/mol (360.2 K); 317.17 ± 51 J/K/mol (364.2 K). Also, the “molar heat capacity at constant pressure” value (368.2 K) is on record as 320.05 ± 51 J/K/mol and the “molar heat capacity at constant pressure” value (372.2 K) is 323.43 ± 52 J/K/mol.

On to `O=S1(=O)CCCC1` [sulfolane], for which the “molar heat capacity at constant pressure” value is, setting by setting: (308.2 K) 182.42 ± 29 J/K/mol; (312.2 K) 183.5 ± 29 J/K/mol; (316.2 K) 184.7 ± 30 J/K/mol; (320.2 K) 185.9 ± 30 J/K/mol; (324.2 K) 187.11 ± 30 J/K/mol; (328.2 K) 188.79 ± 30 J/K/mol. For the same compound, the “molar heat capacity at constant pressure” value runs as follows: (332.2 K) 190.47 ± 31 J/K/mol; (336.2 K) 192.39 ± 31 J/K/mol; (340.2 K) 194.32 ± 31 J/K/mol; (344.2 K) 196.36 ± 31 J/K/mol; (348.2 K) 198.52 ± 32 J/K/mol; (352.2 K) 200.81 ± 32 J/K/mol. In addition, the “molar heat capacity at constant pressure” value (356.2 K) was 203.21 ± 33 J/K/mol; the “molar heat capacity at constant pressure” value (360.2 K) was 205.73 ± 33 J/K/mol; the “molar heat capacity at constant pressure” value (364.2 K) worked out at 208.26 ± 33 J/K/mol; the “molar heat capacity at constant pressure” value (368.2 K) is 210.9 ± 34 J/K/mol; the “molar heat capacity at constant pressure” value (372.2 K) was found to be 213.66 ± 34 J/K/mol.
